# Data: patent CN112516145A, “小分子化合物wk369在制备治疗卵巢癌药物中的应用” (East China Normal University, priority 2019, dated 2021)
# Assays:
# [1] = tested on: patients with platinum-sensitive recurrent ovarian cancer (铂敏感的复发型卵巢癌患者); conditions: clinical phase II and III; cited from earlier work
# [2] = tested on: SKOV3 cells; experiment: Cell cycle by flow cytometry, SKOV3; assay type: cell-based, human; conditions: SKOV3, 24 h
# [3] = mouse, in vivo
# [4] = tested on: Ki67; experiment: Immunohistochemistry of Ki67 in SKOV3 xenograft; assay type: in vivo, human SKOV3 cells in nude mouse
# [5] = tested on: mouse germinal center formation (小鼠生发中心的形成); experiment: Mouse germinal center formation model; assay type: in vivo; conditions: 50mg/kg/d, intraperitoneal, 12 days
# [6] = tested on: CyclinB1, cdc25C, CyclinD1; experiment: Cell cycle regulatory proteins by electrophoresis (blot), SKOV3; assay type: cell-based, human
# [7] = tested on: PARP; experiment: PARP protein by electrophoresis (blot), SKOV3; assay type: cell-based, human
# [8] = tested on: BCL6 downstream genes ATR, P53, CDKN1A (BCL6下游基因); experiment: qPCR of BCL6 downstream genes in SKOV3 xenograft; assay type: in vivo, human SKOV3 cells in nude mouse
# [9] = tested on: normal cell lines HAF, L02, NCM460, 293T, PNT1A (正常细胞株); experiment: SRB proliferation assay, normal cell lines; assay type: cell-based, human; conditions: Fig. 4(C)
# [10] = tested on: CyclinB1, cdc25C, CyclinD1; experiment: Cell cycle regulatory proteins by electrophoresis (blot), ES-2; assay type: cell-based, human
# [11] = tested on: PARP; experiment: PARP protein by electrophoresis (blot), ES-2; assay type: cell-based, human
# [12] = tested on: SKOV3 cells; experiment: Apoptosis by AnnexinV/PI flow cytometry, SKOV3; assay type: cell-based, human; conditions: SKOV3, 48 h
# [13] = tested on: ES-2 cells; experiment: ES-2-luc ovarian cancer intraperitoneal metastasis mouse model; assay type: in vivo, human ES-2 cells in mouse; conditions: 50mg/kg
# [14] = tested on: ES-2 cells; experiment: Transwell invasion assay, ES-2; assay type: cell-based, human
# [15] = tested on: CDKN1A; experiment: qRT-PCR of BCL6 downstream gene CDKN1A in ovarian cancer cells; assay type: cell-based; conditions: ES-2, H08910PM, SKOV3, 24 h
# [16] = tested on: ATR; experiment: qRT-PCR of BCL6 downstream gene ATR in ovarian cancer cells; assay type: cell-based; conditions: ES-2, H08910PM, SKOV3, 24 h
# [17] = tested on: ES-2 cells; experiment: Cell cycle by flow cytometry, ES-2; assay type: cell-based, human; conditions: ES-2, 24 h
# [18] = tested on: P53; experiment: qRT-PCR of BCL6 downstream gene P53 in ovarian cancer cells; assay type: cell-based; conditions: ES-2, H08910PM, SKOV3, 24 h
# [19] = tested on: BCL6 transcriptional repression activity (BCL6的转录抑制活性); experiment: Luciferase reporter gene assay of BCL6 transcriptional repression (293T cells); assay type: cell-based; conditions: 24 h
# [20] = tested on: BCL6-high-expressing ovarian cancer cells ES-2, SKOV3, H08910PM, MCAS, CAOV3, OVCAR8 (BCL6高表达卵巢癌细胞); experiment: Colony formation assay; assay type: cell-based, human
# [21] = tested on: ES-2 cells; experiment: Apoptosis by AnnexinV/PI flow cytometry, ES-2; assay type: cell-based, human; conditions: ES-2, 48 h
# [22] = tested on: SKOV3 tumor (SKOV3肿瘤); experiment: SKOV3 subcutaneous xenograft in nude mice, tumor growth; assay type: in vivo, human SKOV3 cells in nude mouse; conditions: intraperitoneal once daily, about 21 days
# [23] = Behaviour and adverse reactions in ES-2 intraperitoneal metastasis mice; conditions: 50mg/kg, continuous dosing, 30 days
# [24] = molecular target: T1, BCL6-SMRT interaction (BCL6片段蛋白与多肽SMRT的相互作用) (Homo sapiens, UniProt P41182); experiment: HTRF assay of inhibition of BCL6 fragment protein - SMRT polypeptide interaction; assay type: biochemical
# T1 construct: 本发明所需BCL6蛋白N端的BTB/POZ结构域序列为; made in house
# [25] = tested on: SKOV3 cells; experiment: Scratch lateral migration assay, SKOV3; assay type: cell-based, human; conditions: 1, 5, 10 μM, about 12 h
# [26] = tested on: SKOV3 cells; experiment: Transwell invasion assay, SKOV3; assay type: cell-based, human
# [27] = Body weight, behaviour and organ HE staining in SKOV3 xenograft mice
# [28] = tested on: ES-2 cells; experiment: Scratch lateral migration assay, ES-2; assay type: cell-based, human; conditions: 1, 5, 10 μM, about 12 h
# [29] = tested on: BCL6-low-expressing ovarian cancer cell line IGROV-1 (BCL6低表达卵巢癌细胞株); experiment: SRB proliferation assay, BCL6-low ovarian cancer cell line; assay type: cell-based, human
# [30] = molecular target: T2, BCL6 (Homo sapiens, UniProt P41182); conditions: cited from earlier work
# [31] = animal level; cited from earlier work
# [32] = molecular target: T2, BCL6; conditions: greater than 50 or even 200; cited from earlier work
smiles,measurement,setting,value
O=C(c1cc(Cc2n[nH]c(=O)c3ccccc23)ccc1F)N1CCN(C(=O)C2CC2)CC1 [奥卡帕尼],overall survival (OS),[1],并不能延长
C[C@@H]1CN(c2ncc(F)c(Nc3ccc4oc(=O)ccc4c3)n2)C[C@H](C)N1 [WK369],cell cycle arrest at G2M phase,[2],浓度依赖性地诱导
same,abnormal behaviour and adverse reactions,[3],并未发现小鼠异常行为和不良反应
same,body weight change compared with blank control,[3],没有明显变化
same,expression of tumor proliferation marker Ki67,[4],显著降低
same,decrease in germinal center B cell proportion compared with positive compound,[5],下降比例更为显著
same,inhibition of mouse germinal center formation,[5],均能抑制小鼠生发中心的形成
same,CyclinB1 expression,[6],显著下调
same,CyclinD1 expression,[6],显著下调
same,cdc25C expression,[6],显著下调
same,full-length PARP protein,[7],显著下调
same,truncated PARP protein,[7],上调
same,upregulation of BCL6 downstream genes in vivo compared with positive compound,[8],更好地上调
same,difference in half-maximal proliferation inhibition activity between human ovarian cancer and human normal cell lines,[9],具有显著性差异
same,CyclinB1 expression,[10],显著下调
same,CyclinD1 expression,[10],显著下调
same,cdc25C expression,[10],显著下调
same,full-length PARP protein,[11],显著下调
same,truncated PARP protein,[11],上调
same,induction of apoptosis compared with positive compound,[12],更显著地诱导
same,survival rate of mice,[13],有效提高
same,intraperitoneal spread and metastasis,[13]; 30 days,有效抑制
same,tumor growth (bioluminescence),[13]; 30 days,显著降低
same,"number of tumor nodules on the surface of abdominal organs (liver, spleen, kidney, intestine, ovary)","[13]; 30 days, compared with control group",明显减少
same,number of invading cells,"[14]; ES-2, 1 μM, 12-24 h",已显著减少
same,cells that invade,"[14]; ES-2, 10 μM, 12-24 h",只有极少数的细胞发生侵袭
same,inhibition of invasion,"[14]; ES-2, high concentration (FX1 10 μM), WK369 1, 5, 10 μM",显著抑制
same,upregulation of CDKN1A expression,"[15]; 1, 5, 10, 20 μM, highest",最高可上调几十倍
same,upregulation of CDKN1A expression compared with FX1,[15]; FX1 20 μM,更为显著地上调
same,upregulation of ATR expression,"[16]; 1, 5, 10, 20 μM",几倍至十几倍
same,upregulation of ATR expression compared with FX1,[16]; FX1 20 μM,更为显著地上调
same,cell cycle arrest at G2M phase,[17],浓度依赖性地诱导
same,upregulation of P53 expression,"[18]; 1, 5, 10, 20 μM",几倍至十几倍
same,upregulation of P53 expression compared with FX1,[18]; FX1 20 μM,更为显著地上调
same,BCL6 transcriptional repression activity at 20 μM,[19]; 20 μM,完全消除
same,inhibition of BCL6 transcriptional repression activity,"[19]; concentration series, compared with positive compound","浓度依赖性抑制BCL6的转录抑制活性,效果显著优于阳性化合物"
same,inhibition of colony formation compared with FX1,[20]; BCL6-high-expressing lines,显著优于阳性化合物FX1
same,inhibition of colony formation,"[20]; BCL6-high-expressing lines, one week",很显著的抑制效果
same,"inhibition of colony formation, BCL6-high compared with BCL6-low ovarian cancer cell lines",[20]; compared with BCL6-low-expressing line,对BCL6高表达卵巢癌细胞株的抑制效果更为明显
same,induction of apoptosis compared with positive compound,[21],更显著地诱导
same,inhibition of tumor growth compared with FX1 (50mg/kg),[22]; 25mg/kg,显著优于阳性化合物FX1
same,"inhibition of tumor growth, 50mg/kg compared with 25mg/kg",[22]; 50mg/kg vs 25mg/kg,效果显著优于本发明化合物WK36925mg/kg的给药剂量
same,tumor proliferation,[22]; 50mg/kg,肿瘤增殖非常缓慢
same,inhibition of tumor growth,[22]; 25 and 50mg/kg,有效抑制肿瘤的生长
same,toxicity,[23],没有明显毒性
same,IC50,"[24]; 6His-SMRT 200 nM, BCL6-GST 6.25 nM, room temperature overnight, read-out: half-maximal inhibitory concentration (IC50)",0.315 µM
same,fold improvement over FX1 in inhibiting BCL6 fragment protein - SMRT interaction,[24]; WK369 versus positive compound FX1,~120 fold
same,inhibition of migration,[25],浓度依赖性地抑制
same,number of invading cells,"[26]; SKOV3, 1 μM, 12-24 h",已显著减少
same,cells that invade,"[26]; SKOV3, 10 μM, 12-24 h",只有极少数的细胞发生侵袭
same,inhibition of invasion,"[26]; SKOV3, high concentration (FX1 10 μM), WK369 1, 5, 10 μM",显著抑制
same,"toxicity to major organs (heart, liver, spleen, lung, kidney), HE staining",[27],没有明显毒性
same,inhibition of migration,[28],浓度依赖性地抑制
same,IC50,"[29]; BCL6-low-expressing ovarian cancer cells (IGROV-1), 72 h, read-out: half-maximal proliferation inhibition activity",~16 µM
same,difference in half-maximal proliferation inhibition activity between BCL6-high and BCL6-low ovarian cancer cell lines,[29]; Fig. 4(D),具有显著性差异
CNC(=O)COc1cc2cc(Nc3nc(N4C[C@H](C)C[C@H](C)C4)ncc3Cl)ccc2n(C)c1=O [BI3802],biological activity at animal level,[30],生物活性差
same,absorption,[31],很难被吸收
O=C(O)CC(C(=O)O)N1C(=O)C(=C2C(=O)Nc3ccc(Br)cc32)SC1=S (stereo not shown) [79-6],concentration exerting function at molecular and cellular level,[32],> 50 µM
